Measured values published in patent US7320984B2, “Remedies or preventives for urinary frequency or urinary incontinence and morphinan derivatives having nitrogen-containing heterocyclic group” (Toray Industries, Inc., priority 2002, dated 2008).

Tested on: rhythmic bladder contractions in rats
Assay: Inhibitory effect against rhythmic bladder contractions in rats
Format: in vivo
Settings: anesthetized female SD rats, intravenous, dose 0.003 mg/kg body weight
Experimental: Inhibitory Effect Against Rhythmic Bladder Contractions in Rats
Female SD rats were anesthetized with an intraperitoneal administration of urethane (1.0 g/kg). A polyethylene tube was inserted from the urethra to the bladder and the tube was fixed by ligation. Then physiological saline was appropriately infused (infusion rate: about 0.2 ml/min., maximum: about 1.5 ml/animal) through the tube to cause rhythmic bladder contractions. The rhythmic bladder contractions were monitored by measuring the intravesical pressure through a polyethylene tube inserted into the bladder. After confirming that stable rhythmic bladder contractions occurred at least 10 times, a vehicle containing a prescribed dose of a test compound was intravenously administration at a dose of 1 ml/kg. In cases where the intravesical pressure, within 10 minutes after the administration of the test compound, decreased to 50% or less of the intravesical pressure immediately […] the administration, the test compound was judged as having inhibitory effect against urinary bladder contractions, and the time period until the intravesical pressure returned to more than 50% was defined as inhibitory time of rhythmic bladder contractions. As the vehicle for administration, physiological saline was used for test compounds 4, 7, 8, 9, 10, 13, 29, 30, 31, 33, 34, 75, 76, 79, 80, 81, 82, 84, 89, 90, 91, 93, 94, 95, 110 and 111, aqueous 10% dimethylsulfoxide (DMSO) solution was used for test compounds 11, 12, 14, 15, 16, 17, 18, 20, 21, 23, 28, 46, 47, 50, 55, 56, 57, 58, 59, 60, 61, 62, 63, 64, 65, 66, 68, 69, 70, 71, 72, 73, 74, 77, 78, 83, 85, 86, 87, 88, 92, 96, 97, 98, 99, 100, […], 103, 104, 105, 106, 107, 108 and […], aqueous 20% dimethylsulfoxide (DMSO) solution was used for test compounds 1, 2, 67 and 101, and aqueous 5% xylitol solution was used for test compounds 5 and 35. The aqueous 10% DMSO solution, aqueous 20% DMSO solution and the aqueous 5% xylitol solution per se, which may influence on the inhibitory time of rhythmic bladder contractions, were also tested at a dose of 1 ml/kg. With any of the compounds, prolongation of the inhibitory time of rhythmic bladder contractions was observed when compared with that obtained in the group to which the vehicle alone was administered.

Row | SMILES | Mean Inhibitory Time of Rhythmic Bladder Contractions
1 | O=C1C2=C(CCCC2)C(=O)N1C1CC[C@@]2(O)[C@H]3Cc4ccc(O)c5c4[C@@]2(CCN3CC2CC2)[C@H]1O5 (stereo in doubt) [Compound 72, N-(17-cyclopropylmethyl-4,5α-epoxy-3,14-dihydroxymorphinan-6α-yl)-3,4,5,6-tetrahydrophthalimide] | 26.7 min
2 | O=C1c2cccc(F)c2C(=O)N1[C@H]1CC[C@@]2(O)[C@H]3Cc4ccc(O)c5c4[C@@]2(CCN3CC2CC2)[C@H]1O5 [Compound 67, N-(17-cyclopropylmethyl-4,5α-epoxy-3,14-dihydroxymorphinan-6α-yl)-3-fluorophthalimide] | 27.3 min

Same assay, conditions: anesthetized female SD rats, intravenous, dose 0.005 mg/kg body weight

Row | SMILES | Mean Inhibitory Time of Rhythmic Bladder Contractions
3 | O=C1c2ccc(F)cc2C(=O)N1[C@@H]1CC[C@@]2(O)[C@H]3Cc4ccc(O)c5c4[C@@]2(CCN3CC2CC2)[C@H]1O5 [Compound 16, N-(17-cyclopropylmethyl-4,5α-epoxy-3,14-dihydroxy-morphinan-6β-yl)-4-fluorophthalimide] | 14.8 min
4 | O=C1c2ccccc2C(=O)N1[C@@H]1CC[C@@]2(O)[C@H]3Cc4ccc(O)c5c4[C@@]2(CCN3CC2CC2)[C@H]1O5 [Compound 11, N-(17-cyclopropylmethyl-4,5α-epoxy-3,14-dihydroxy-morphinan-6β-yl)-phthalimide] | 15.5 min

Same assay, conditions: anesthetized female SD rats, intravenous, dose 0.01 mg/kg body weight

Row | SMILES | Mean Inhibitory Time of Rhythmic Bladder Contractions
5 | O=C1C2=C(CCCC2)C(=O)N1[C@@H]1CC[C@@]2(O)[C@H]3Cc4ccc(O)c5c4[C@@]2(CCN3CC2CC2)[C@H]1O5 [Compound 77, N-(17-cyclopropylmethyl-4,5α-epoxy-3,14-dihydroxy-morphinan-6β-yl)-3,4,5,6-tetrahydrophthalimide] | 16.6 min
6 | C=CCN1CC[C@]23c4c5ccc(O)c4O[C@H]2[C@@H](N2C(=O)c4ccccc4C2=O)CC[C@@]3(O)[C@H]1C5 [Compound 64, N-(17-allyl-4,5α-epoxy-3,14-dihydroxymorphinan-6α-yl)-phthalimide] | 20.8 min
7 | C=CCN1CC[C@]23c4c5ccc(O)c4O[C@H]2[C@@H](N2C(=O)c4ccc(F)cc4C2=O)CC[C@@]3(O)[C@H]1C5 [Compound 65, N-(17-allyl-4,5α-epoxy-3,14-dihydroxymorphinan-6α-yl)-4-fluorophthalimide] | 18.6 min
8 | O=S1(=O)c2ccccc2S(=O)(=O)N1[C@@H]1CC[C@@]2(O)[C@H]3Cc4ccc(O)c5c4[C@@]2(CCN3CC2CC2)[C@H]1O5 [Compound 107, 2-(17-cyclopropylmethyl-4,5α-epoxy-3,14-dihydroxy-morphinan-6β-yl)-benzo[1,3,2]dithiazol-1,1,3,3-tetraoxide] | 14.1 min

Same assay, conditions: anesthetized female SD rats, intravenous, dose 0.03 mg/kg body weight

Row | SMILES | Mean Inhibitory Time of Rhythmic Bladder Contractions
9 | C=CCN1CC[C@]23c4c5ccc(O)c4O[C@H]2[C@H](N2Cc4cccc(F)c4C2=O)CC[C@@]3(O)[C@H]1C5 [Compound 88, 2-(17-allyl-4,5α-epoxy-3,14-dihydroxy-morphinan-6β-yl)-7-fluoro-2,3-dihydro-isoindol-1-one] | 10.7 min
10 | C=CCN1CC[C@]23c4c5ccc(O)c4O[C@H]2[C@H](N2C(=O)c4ccccc4C2=O)CC[C@@]3(O)[C@H]1C5 [Compound 13, N-(17-allyl-4,5α-epoxy-3,14-dihydroxy-morphinan-6β-yl)-phthalimide] | 11.7 min

Same assay, conditions: anesthetized female SD rats, intravenous, dose 0.1 mg/kg body weight

Row | SMILES | Mean Inhibitory Time of Rhythmic Bladder Contractions
11 | O=C1c2cccc(O)c2C(=O)N1[C@@H]1CC[C@@]2(O)[C@H]3Cc4ccc(O)c5c4[C@@]2(CCN3CC2CC2)[C@H]1O5 [Compound 96, N-(17-cyclopropylmethyl-4,5α-epoxy-3,14-dihydroxy-morphinan-6β-yl)-3-hydroxy-phthalimide] | 12.9 min
12 | C=CCN1CC[C@]23c4c5ccc(O)c4O[C@H]2[C@H](N2C(=O)c4ccccc4S2(=O)=O)CC[C@@]3(O)[C@H]1C5 [Compound 109, N-(17-allyl-4,5α-epoxy-3,14-dihydroxy-morphinan-6β-yl)-O-sulfonebenzimide] | 18.1 min
13 | O=c1[nH]c2ccccc2c(=O)n1[C@@H]1CC[C@@]2(O)[C@H]3Cc4ccc(O)c5c4[C@@]2(CCN3CC2CC2)[C@H]1O5 [Compound 104, 3-(17-cyclopropylmethyl-4,5α-epoxy-3,14-dihydroxy-morphinan-6β-yl)-1H-quinazolin-2,4-dione] | 13.5 min
14 | C=CCN1CC[C@]23c4c5ccc(O)c4O[C@H]2[C@H](N2Cc4ccccc4C2=O)CC[C@@]3(O)[C@H]1C5 [Compound 86, 2-(17-allyl-4,5α-epoxy-3,14-dihydroxy-morphinan-6β-yl)-2,3-dihydro-isoindol-1-one] | 12.1 min
15 | CN1CC[C@]23c4c5ccc(O)c4O[C@H]2[C@H](N2CCCc4ccccc42)CC[C@H]3[C@H]1C5 [Compound 1, 4,5α-epoxy-6β-tetrahydroquinolino-17-methyl-morphinan-3-ol] | 11.7 min
16 | C=CCN1CC[C@]23c4c5ccc(O)c4O[C@H]2[C@H](N2C(=O)c4ccc(N)cc4C2=O)CC[C@@]3(O)[C@H]1C5 [Compound 99, N-(17-allyl-4,5α-epoxy-3,14-dihydroxy-morphinan-6β-yl)-4-amino-phthalimide] | 16.9 min
17 | O=C1CC(c2ccccc2)C(=O)N1[C@@H]1CC[C@@]2(O)[C@H]3Cc4ccc(O)c5c4[C@@]2(CCN3CC2CC2)[C@H]1O5 (stereo partly drawn) [Compound 71, N-(17-cyclopropylmethyl-4,5α-epoxy-3,14-dihydroxymorphinan-6β-yl)-2-phenyl-succinimide] | 24.9 min
18 | C=CCN1CC[C@]23c4c5ccc(O)c4O[C@H]2[C@H](N2C(=O)c4ccccc4C2=O)CC[C@@]3(OC(C)=O)[C@H]1C5 [Compound 92, N-(14-acetoxy-17-allyl-4,5α-epoxy-3-hydroxymorphinan-6β-yl)-phthalimide] | 16.0 min
19 | O=C1c2cc(Cl)c(Cl)cc2C(=O)N1[C@@H]1CC[C@@]2(O)[C@H]3Cc4ccc(O)c5c4[C@@]2(CCN3CC2CC2)[C@H]1O5 [Compound 55, N-[17-(cyclopropylmethyl)-4,5α-epoxy-3,14-dihydroxymorphinan-6β-yl]-4,5-dichlorophthaimide] | 15.0 min
20 | CN1CCN([C@@H]2CC[C@@]3(O)[C@H]4Cc5ccc(O)c6c5[C@@]3(CCN4C)[C@H]2O6)c2ccccc21 [Compound 9, 4,5α-epoxy-6β-(3,4-dihydro-1-methyl-1H-quinoxalino)-17-methyl-morphinan-3,14-diol] | 9.1 min
21 | COc1cccc2c1C(=O)N([C@@H]1CC[C@@]3(O)[C@H]4Cc5ccc(O)c6c5[C@@]3(CCN4CC3CC3)[C@H]1O6)C2=O [Compound 102, N-(17-cyclopropylmethyl-4,5α-epoxy-3,14-dihydroxy-morphinan-6β-yl)-3-methoxy-phthalimide] | 15.6 min

Same assay, conditions: anesthetized female SD rats, intravenous, dose 1.0 mg/kg body weight

Row | SMILES | Mean Inhibitory Time of Rhythmic Bladder Contractions
22 | O=C1CCC(=O)N1[C@@H]1CC[C@@]2(O)[C@H]3Cc4ccc(O)c5c4[C@@]2(CCN3CC2CC2)[C@H]1O5 [Compound 20, N-(17-cyclopropylmethyl-4,5α-epoxy-3,14-dihydroxy-morphinan-6β-yl)-succinimide] | 18.1 min
23 | O=C1C/C(=C\c2ccccc2)C(=O)N1[C@@H]1CC[C@@]2(O)[C@H]3Cc4ccc(O)c5c4[C@@]2(CCN3CC2CC2)[C@H]1O5 [Compound 21, N-(17-cyclopropylmethyl-4,5α-epoxy-3,14-dihydroxy-morphinan-6β-yl)-2-benzylidene-succinimide] | 19.0 min
24 | O=C1CCCN1[C@@H]1CC[C@@]2(O)[C@H]3Cc4ccc(O)c5c4[C@@]2(CCN3CC2CC2)[C@H]1O5 [Compound 46, 1-(17-cyclopropylmethyl-4,5α-epoxy-3,14-dihydroxy-morphinan-6β-yl)-pyrrolidin-2-one] | 20.0 min
25 | CCN(CC)C(=O)[C@@H]1CCCN1[C@@H]1CC[C@@]2(O)[C@H]3Cc4ccc(O)c5c4[C@@]2(CCN3C)[C@H]1O5 [Compound 29, 1-(4,5α-epoxy-3,14-dihydroxy-17-methyl-morphinan-6β-yl)-pyrrolidin-(2S)-carboxyl diethylamide] | 0.8 min

Same assay, conditions: anesthetized female SD rats, intravenous, dose 3.0 mg/kg body weight

Row | SMILES | Mean Inhibitory Time of Rhythmic Bladder Contractions
26 | CCN(CC)C(=O)C1CCCN([C@@H]2CC[C@@]3(O)[C@H]4Cc5ccc(O)c6c5[C@@]3(CCN4C)[C@H]2O6)C1 (stereo partly drawn) [Compound 33, 1-(4,5α-epoxy-3,14-dihydroxy-17-methyl-3-morphinan-6β-yl)-piperidin-3-carboxyl diethylamide] | 2.1 min
